Measured values from ChEMBL document CHEMBL4837184, “Antibacterial p-Terphenyl with a Rare 2,2'-Bithiazole Substructure and Related Compounds Isolated from the Marine-Derived Actinomycete Nocardiopsis sp. HDN154086” (J Nat Prod, 2021).
Values after ≈ are worked out from the molar mass of the structure shown.

What was measured:
ASPC1 = assay: Cytotoxicity against human ASPC1 cells assessed as cell growth inhibition at 30 uM by SRB assay relative to control; type: functional; conditions: read-out: GI
[1] = Cytotoxicity against human L02 cells assessed as cell growth inhibition at 30 uM by SRB assay relative to control; type: cell-based; conditions: read-out: GI
K562 = assay: Cytotoxicity against human K562 cells assessed as cell growth inhibition at 30 uM by MTT assay relative to control; type: functional; conditions: read-out: GI
MDA-MB-231 = assay: Cytotoxicity against human MDA-MB-231 cells assessed as cell growth inhibition at 30 uM by SRB assay relative to control; type: functional; conditions: read-out: GI
Bacillus subtilis = assay: Antibacterial activity against Bacillus subtilis assessed as reduction in bacterial growth; type: functional; conditions: time 24 hrs
Vibrio parahaemolyticus = assay: Antibacterial activity against Vibrio parahaemolyticus assessed as reduction in bacterial growth; type: functional; conditions: time 24 hrs
Escherichia coli = assay: Antibacterial activity against Escherichia coli assessed as reduction in bacterial growth; type: functional; conditions: time 24 hrs
Bacillus cereus = assay: Antibacterial activity against Bacillus cereus assessed as reduction in bacterial growth; type: functional; conditions: time 24 hrs
Proteus sp. = assay: Antibacterial activity against Proteus sp. assessed as reduction in bacterial growth; type: functional; conditions: Proteus sp. (in: enterobacteria); time 24 hrs
Staphylococcus aureus [2] = assay: Antibacterial activity against methicillin-resistant Staphylococcus aureus assessed as reduction in bacterial growth; type: functional; conditions: time 24 hrs
Mycolicibacterium phlei = assay: Antibacterial activity against Mycobacterium phlei assessed as reduction in bacterial growth; type: functional; conditions: time 24 hrs
Staphylococcus aureus [3] = assay: Potency index, ratio of ciprofloxacin MIC to test compound MIC for methicillin-resistant Staphylococcus aureus; type: functional

| Compound | inhibition of growth at 30 µM (ASPC1) [%] | inhibition at 30 µM [1] [%] | inhibition of growth at 30 µM (K562) [%] | inhibition of growth at 30 µM (MDA-MB-231) [%] | MIC (Bacillus subtilis) [µM] | MIC (Vibrio parahaemolyticus) [µM] | MIC (Escherichia coli) [µM] | MIC (Bacillus cereus) [µM] | MIC (Proteus sp.) [µM] | MIC (Staphylococcus aureus [2]) [µM] | MIC (Mycolicibacterium phlei) [µM] | Ratio (Staphylococcus aureus [3]) |
| --- | --- | --- | --- | --- | --- | --- | --- | --- | --- | --- | --- | --- |
| COC1=C(c2ccc(OC)cc2)C(=O)C(SC)=C(c2ccc(OC)cc2)C1=O | < 50 | < 50 | < 50 | < 50 |  |  |  |  |  |  |  |  |
| COC(=O)CSC1=C(c2ccc(OC)cc2)C(=O)C(OC)=C(c2ccc(OC)cc2)C1=O | < 50 | < 50 | < 50 | < 50 |  |  |  |  |  |  |  |  |
| COC1=C(c2ccc(OC)cc2)C(=O)C(N)=C(c2ccc(OC)cc2)C1=O | < 50 | < 50 | < 50 | < 50 |  |  |  |  |  |  |  |  |
| COc1ccc(-c2c(OC)c(O)c(-c3ccc(OC)cc3)c3sc(-c4nccs4)nc23)cc1 | < 50 | < 50 | < 50 | < 50 | 3.1 (≈ 1.48 µg/mL) | 6.2 (≈ 2.95 µg/mL) | 3.1 (≈ 1.48 µg/mL) | 1.5 (≈ 0.715 µg/mL) | 3.1 (≈ 1.48 µg/mL) | > 50 | 6.2 (≈ 2.95 µg/mL) |  |
| COC(=O)CCSC1=C(c2ccc(OC)cc2)C(=O)C(OC)=C(c2ccc(OC)cc2)C1=O | < 50 | < 50 | < 50 | < 50 | 12 (≈ 5.62 µg/mL) | > 50 | > 50 | > 50 | 12 (≈ 5.62 µg/mL) | 6.2 (≈ 2.9 µg/mL) | > 50 | 8 |
| O=C(O)c1cn(C2CC2)c2cc(N3CCNCC3)c(F)cc2c1=O [CIPROFLOXACIN] |  |  |  |  | 0.39 (≈ 0.129 µg/mL) | 0.39 (≈ 0.129 µg/mL) | 0.78 (≈ 0.258 µg/mL) | 1.5 (≈ 0.497 µg/mL) | 1.5 (≈ 0.497 µg/mL) | 50 (≈ 16.6 µg/mL) | 0.78 (≈ 0.258 µg/mL) |  |
